Test results from patent US20240299420A1, “TETRACYCLINE DERIVATIVE-INDUCED MITOHORMESIS MEDIATES DISEASE TOLERANCE AGAINST VIRAL INFECTIONS” (priority 2021, published 2024).

Columns and labels:
[1] = tested on: hsp-6::gfp reporter (UPR^mt); assay type: in vivo, Caenorhabditis elegans; conditions: for Activity in Worm Assay: UPR^mt induction, C. elegans hsp-6::gfp reporter, compounds at 68 µM; for UPR^mt activation (hsp-6::gfp reporter): 68 µM, 9-TB at 17 μM; for induction of MSR and in particular mitohormesis: summary of screen of 51 tetracycline derivatives
[2] = tested on: mouse bone marrow derived macrophages (BMDM); assay: IFNβ measurement in BMDM culture medium (ELISA); assay type: cell-based; conditions: ddC 100 μM for 72 hours, Dox 30 μg/ml for 14 hours
E. coli = assay: Minimum inhibitory concentration (MIC) of bacterial growth; assay type: cell-based; conditions: compared with Dox
P. aeruginosa = assay: as above; assay type: cell-based; conditions: compared with Dox

Compound	Activity in Worm Assay [1]	other results
CN(C)c1ccc(O)c2c1C[C@H]1C[C@H]3[C@H](N(C)C)C(O)=C(C(N)=O)C(=O)[C@@]3(O)C3NN=C2C31 (stereo partly drawn) [11,12-pyrazolo minocycline]	inactive	–
CCCCc1ccc(O)c2c1C[C@H]1C[C@H]3[C@H](N(C)C)C(O)=C(C(N)=O)C(=O)[C@@]3(O)C(O)=C1C2=O [7-butyl sancycline]	slight	–
CN(C)c1cc(NC(=O)Nc2cc(C(F)(F)F)cc(C(F)(F)F)c2)c(O)c2c1C[C@H]1C[C@H]3[C@H](N(C)C)C(O)=C(C(N)=O)C(=O)[C@@]3(O)C(O)=C1C2=O [9-(3,5-trifluoromethyl-phenylurea) aminominocycline]	inactive	–
CCc1ccc2c(c1O)C(=O)C1=C(O)[C@]3(O)C(=O)C(C(N)=O)=C(O)[C@@H](N(C)C)[C@@H]3[C@@H](O)[C@@H]1[C@H]2C [9-ethyl doxycycline]	inactive	–
CCCCCC(=O)O[C@H]1[C@H]2C(=C(O)[C@]3(O)C(=O)C(C(N)=O)=C(O)[C@@H](N(C)C)[C@H]13)C(=O)c1c(O)cccc1[C@@H]2C [5-hexanoate doxycycline]	slight	–
Nc1ccn([C@H]2CC[C@@H](CO)O2)c(=O)n1 [ddC, 2′,3′-dideoxycytidine, reference compound]	–	effect on Dox-induced secretion of IFNβ [2]: abrogated
NC(=O)C1=C(O)C[C@@H]2C[C@@H]3Cc4ccc(N)c(O)c4C(=O)C3=C(O)[C@]2(O)C1=O [4-dedimethyl-amino-9-amino sancycline]	inactive	–
CN(C)c1cc(NC(=O)CNC(C)(C)C)c(O)c2c1C[C@H]1C[C@H]3[C@H](N(C)C)C(O)=C(C(N)=O)C(=O)[C@@]3(O)C(O)=C1C2=O [Tygacil ™, reference compound]	slight	UPR^mt activation (hsp-6::gfp reporter) [1]: did not activate
CCOC(=O)/C=C/c1ccc2c(c1O)C(=O)C1=C(O)[C@]3(O)C(=O)C(C(N)=O)=C(O)[C@@H](N(C)C)[C@@H]3[C@@H](O)[C@@H]1[C@H]2C [9-ethylacrylate doxycycline]	slight	–
CN(C)c1ccc(O)c2c1C[C@H]1C[C@H]3[C@H](N(C)C)C(O)=C(C#N)C(=O)[C@@]3(O)C(O)=C1C2=O [2N nitrile minocycline]	inactive	–
C=C1C(=O)c2c(O)ccc(N(C)C)c2C[C@H]1C[C@H](C)[C@@H](C)N(C)C [2N-1,1′-dimethylbutane minocycline]	slight	–
CN(C)[C@@H]1C(O)=C(C(N)=O)C(=O)[C@@]2(O)C(O)=C3C(=O)c4c(O)cccc4C(CSc4ccccc4)[C@H]3[C@H](O)[C@@H]12 (stereo partly drawn) [13-thiophenyl dihydro methacycline]	slight	–
4-oxime minocycline	inactive	–
CN(C)c1ccc(OS(=O)(=O)C(F)(F)F)c2c1C[C@H]1C[C@H]3[C@H](N(C)C)C(O)=C(C(N)=O)C(=O)[C@@]3(O)C(O)=C1C2=O [10-triflate minocycline]	inactive	–
C[C@H]1c2cccc(O)c2C(=O)C2=C(O)[C@]3(O)C(=O)C(C#N)=C(O)[C@@H](N(C)C)[C@@H]3[C@@H](O)[C@@H]21 [2N-nitrile doxycycline]	inactive	–
CN(C)[C@@H]1C(O)=C(C(N)=O)C(=O)[C@@]2(O)C(O)=C3C(=O)c4c(O)ccc(/C=C/c5ccccc5)c4C[C@H]3C[C@@H]12 [7-(1-styrylphenyl) sancycline]	inactive	–
CN(C)[C@@H]1C(O)=C(C(N)=O)C(=O)[C@@]2(O)C(O)=C3C(=O)c4c(O)cccc4[C@@](C)(O)[C@H]3[C@H](O)[C@@H]12 [oxytetracycline, reference compound]	slight	–
CN(C)c1cc(N)c(O)c2c1C[C@H]1C[C@H]3CC(O)=C(C(N)=O)C(=O)[C@@]3(O)C(O)=C1C2=O [4-dedimethylamino-9-aminominocycline]	inactive	–
CCC(=O)O[C@H]1[C@H]2C(=C(O)[C@]3(O)C(=O)C(C(N)=O)=C(O)[C@@H](N(C)C)[C@H]13)C(=O)c1c(O)cccc1[C@@H]2C [5-propionate doxycycline]	inactive	–
CN(C)c1cc(-c2ccc(C(=O)O)s2)c(O)c2c1C[C@H]1C[C@H]3[C@H](N(C)C)C(O)=C(C(N)=O)C(=O)[C@@]3(O)C(O)=C1C2=O [9-(4′-carboxy-1′-thiophene) minocycline]	inactive	–
CN(C)[C@@H]1C(O)=C(C(N)=O)C(=O)[C@@]2(O)C(O)=C3C(=O)c4c(O)cccc4C(CSC4CCCC4)[C@H]3[C@H](OC(=O)C3CCCC3)[C@@H]12 (stereo partly drawn) [5-cyclopentanoate-13-cyclopentylthio dihydro methacycline]	slight	–

Compound	Activity in Worm Assay [1]	other results
CN(C)c1cc(NC(=O)CN2CCCC2)c(O)c2c1C[C@H]1C[C@H]3[C@H](N(C)C)C(O)=C(C(N)=O)C(=O)[C@@]3(O)C(O)=C1C2=O [9-(pyrrolidinyl-methylcarbonyl) aminominocycline]	inactive	–
8-bromo sancycline	–	induction of MSR and in particular mitohormesis [1]: strongly induce MSR; MIC for E. coli (E. coli): significantly higher MIC; MIC for P. aeruginosa (P. aeruginosa): significantly higher MIC
CN(C)[C@@H]1C(O)=C(C(N)=O)C(=O)[C@@]2(O)C(O)=C3C(=O)c4c(O)cccc4C(CSC4CCCC4)[C@H]3[C@H](O)[C@@H]12 (stereo partly drawn) [13-cyclopentylthio dihydro methacycline]	slight	–
CN(C)c1ccc(O)c2c1C[C@H]1C[C@H]3[C@H](N(C)C)C(O)=C(C(N)=O)C4=NNC(O)(C1C2=O)[C@]43O (stereo partly drawn) [1,12-hydroxypyrazolo minocycline]	inactive	–
CN(C)[C@@H]1C(O)=C(C(N)=O)C(=O)[C@@]2(O)C(O)=C3C(=O)c4c(O)ccc(C5CCCC5)c4C[C@H]3C[C@@H]12 [7-cyclopentyl sancycline]	inactive	–
CC(C)SCC1c2cccc(O)c2C(=O)C2=C(O)[C@]3(O)C(=O)C(C(N)=O)=C(O)[C@@H](N(C)C)[C@@H]3[C@@H](O)[C@@H]21 (stereo partly drawn) [13-isopropylthio dihydro methacycline]	slight	–
COc1ccc(/C=C2\c3cccc(O)c3C(=O)C3=C(O)[C@]4(O)C(=O)C(C(N)=O)=C(O)[C@@H](N(C)C)[C@@H]4[C@@H](O)[C@@H]32)cc1 [13-(4′-methoxyphenyl) methacycline]	slight	–
CN(C)[C@@H]1C(O)=C(C(N)=O)C(=O)[C@@]2(O)C(O)=C3C(=O)c4c(O)cccc4/C(=C\c4ccc(Br)cc4)[C@H]3[C@H](O)[C@@H]12 [13-(4′-bromophenyl) methacycline]	slight	–
CC(=O)Nc1ccc2c(c1O)C(=O)C1=C(O)[C@]3(O)C(=O)C(C(N)=O)=C(O)[C@@H](N(C)C)[C@@H]3[C@@H](O)[C@@H]1[C@H]2C [9-acetylamino doxycycline]	inactive	–
11,12-pyrazolo doxycycline	inactive	–
CN(C)c1cc(-c2sccc2C(=O)O)c(O)c2c1C[C@H]1C[C@H]3[C@H](N(C)C)C(O)C(C(N)=O)C(=O)[C@@]3(O)C(O)=C1C2=O (stereo partly drawn) [9-(2′carboxy-1′-thiophene) minocycline]	inactive	–
CN(C)c1ccc(O)c2c1C[C@H]1C[C@H]3CC(O)=C(C(N)=O)C(=O)[C@@]3(O)C(O)=C1C2=O [4-dedimethylamino minocycline]	inactive	–
CN(C)[C@@H]1C(O)=C(C(N)=O)C(=O)[C@@]2(O)C(O)=C3C(=O)c4c(O)cccc4S[C@H]3C[C@@H]12 [Thiatetracycline, reference compound]	inactive	–
CN(C)[C@@H]1C(O)=C(C(N)=O)C(=O)[C@@]2(O)C(O)=C3C(=O)c4c(O)ccc(Cl)c4[C@@H](O)[C@H]3C[C@@H]12 [demeclocycline, reference compound]	slight	–
CN(C)c1ccc(O)c2c1C[C@H]1C[C@H]3[C@H](N(C)C)C(O)=C(C(N)=O)C(=O)[C@@]3(O)C(O)=C1C2=O [minocycline, reference compound]	inactive	UPR^mt activation (hsp-6::gfp reporter) [1]: did not activate
CCc1cc(N(C)C)c2c(c1O)C(=O)C1=C(O)[C@]3(O)C(=O)C(C(N)=O)=C(O)[C@@H](N(C)C)[C@@H]3C[C@@H]1C2 [9-ethyl minocycline]	inactive	–
CN(C)[C@@H]1C(O)=C(C(N)=O)C(=O)[C@@]2(O)C(O)=C3C(=O)c4c(O)ccc(Br)c4C[C@H]3C[C@@H]12 [7-bromo sancycline]	–	induction of MSR and in particular mitohormesis [1]: strongly induce MSR; MIC for E. coli (E. coli): significantly higher MIC; MIC for P. aeruginosa (P. aeruginosa): significantly higher MIC
CN(C)[C@@H]1C(O)=C(C(N)=O)C(=O)[C@@]2(O)C(O)=C3C(=O)c4c(O)ccc(-c5ccc(F)cc5)c4C[C@H]3C[C@@H]12 [7-(4-fluoro-phenyl)sancycline]	inactive	–
CN(C)[C@@H]1C(O)=C(C(N)=O)C(=O)[C@@]2(O)C(O)=C3C(=O)c4c(ccc(C(C)(C)C)c4O)C[C@H]3C[C@@H]12 [9-tert-butyl sancycline]	inactive	–
7,9-bis(2,6-difluoro-4-pyridynyl)-sancycline [7,9-bis3POyr26 diF dox]	–	induction of MSR and in particular mitohormesis [1]: strongly induce MSR; MIC for E. coli (E. coli): significantly higher MIC; MIC for P. aeruginosa (P. aeruginosa): significantly higher MIC
Omadacycline [reference compound]	inactive	UPR^mt activation (hsp-6::gfp reporter) [1]: did not activate
